These results are taken from US20210087525A1, “COST EFFECTIVE CULTURE MEDIA AND PROTOCOL FOR HUMAN INDUCED PLURIPOTENT STEM CELLS” (NORTHWESTERN UNIVERSITY, priority 2019, published 2021).

The subject of data set [1] is hiPSC. The data set can be described thus: long-term 5-passage, 4-day hiPSC growth assay. The data set is classed as cell-based, human. The note with it: FIG. 5D-L. The source says:
FIG. 5A-P. Optimization of B8 Medium Constituents with a Long-Term Growth Assay. Results are normalized to initial medium component concentrations shown with a dark gray bar, optimizations were completed using long-term 5-passage, 4-day growth assay. Comparison of the effect of (A) recombinant human insulin concentration on relative growth (n=10). (B) L-ascorbic acid 2-phosphate (n=10). (C) Recombinant transferrin (n=10). (D) Sodium selenite (n=5). (E) In-house made FGF2-G3 (n=6). (G) NODAL (n=5). (H) Activin A (n=5). (I) In-house made TGFb3 after 9 passages compared to commercial TGFb1 (n=9). (J) Addition of NRG1 to 40 ng ml−1 FGF2-G3 (n>5). (K) Final B8 formula. n=full experimental replicates, unpaired Student's T-test, *P≤0.05, **P≤0.01, ***P≤0.005, ****P≤0.0001, n.s.=not significant.
Our initial short-term experiments provided preliminary optimizations, yet we were aware from previous experiments that some variables, such as the elimination of TGFβ1, had minimal effects short-term and would only have detectable negative effects in long-term experiments. Thus the effectiveness of a long-term assay was evaluated with the following assay protocol: […]

The conditions of data set [2]: Huang et al., 2014; cited from earlier work.
For the next data set, the system named is phospho-ERK. The data set is described as follows: stimulation of phospho-ERK in FGF2-starved hiPSC by media stored at 37° C. (Western blot). The data set is classed as cell-based, human. Conditions: FIG. 7E. The method, then:
FIG. 7A-E. Qualification of B8 as Suitable for hiPSC Generation and Culture. […] (B) Expression of pluripotent markers in a variety of B8-derived hiPSC lines. (C) Example G-banding karyotype analysis of four hiPSC lines derived in B8 from blood. (D) hiPSC growth at low seeding densities in B8 compared to E8 (n=8). (E) Assessment of stimulation of phospho-ERK after media had been stored at 37° C. for 2 or 7 days, comparing in-house generated FGF2-G3 to a commercial FGF2 (Peprotech). hiPSC were starved of FGF2 for 24 h then treated with the indicated media for 1 h before collection for Western blot. Total ERK was used as a loading control.
Stock lysis buffer was prepared as 150 mM NaCl, 20 mM Tris pH 7.5, 1 mM EDTA, 1 mM EGTA, and 1% Triton X-100 and stored at 4° C. Fresh complete lysis buffer was prepared with final concentration of 1× Protease Inhibitor (Roche, 5892791001), 1× Phosphatase Inhibitor Cocktail 2 (P5726, Sigma), 1× Phosphatase Inhibitor Cocktail 3 (Sigma, P0044), 2 mM PMSF (Sigma, P7626), and 1% SDS Solution (Fisher Scientific, BP2436200). hiPSC were starved using B8 without FGF2 for 24 hours, then treated with media containing the corresponding FGF2 for 1 h. Media was then removed, and cells were washed once with DPBS, harvested with 0.5 mM EDTA in DPBS, and transferred into tubes. Samples were pelleted by centrifugation at 500×g for 3 minutes and the supernatant was discarded. The pellet was resuspend in 150 μl complete lysis buffer and incubated on ice for 30 min. Clear lysates were collected by centrifugation at 10,000×g for 10 min at 4° C. The protein concentration was measured with Qubit Protein Assay Kit (Invitrogen, Q33211) and Qubit 4 fluorometer. Lysates was stored in −80° C. before use. 10 μg of sample was prepared with NuPAGE™ LDS Sample Buffer (Invitrogen, B0007) and NuPAGE™ Reducing Agent (Invitrogen, B0009) according to the manufacturer's instructions and run on NuPAGE™ 10% Bis-Tris Gel (Invitrogen, NP0302BOX) and Mini Gel Tank system (Invitrogen, A25977) with Bolt MES SDS Running Buffer (Invitrogen, B000202) at 100 V for 1 h. […]
A general note: In western blotting, separated proteins are transferred to a membrane and probed.

Data set [3] relates to hiPSC. The data set can be described thus: weekend-free media change / passaging schedule growth. The data set is classed as cell-based, human. The note with it: various doses, FIG. 8E. The method, then:
FIG. 8A-H. Optimization of Weekend-Free Passaging Schedule that is Still Compatible with Monolayer Differentiation. (A) Establishment of an optimal 4-day media change schedule. (B) 7 day passage with media change schedule. (C) 7 day passage only schedule. (D) Comparison of growth when using two 7-day weekend-free passaging schedules with or without addition of 0.5 mg ml−1 albumin (n=2). (E) Comparison the addition of varying levels of albumin (mg ml−1) to a 7-day passage and media change schedule (n=4). (F) Cardiac differentiation efficiency when using 7-day passage and media change schedule (n=5). (G) Endothelial differentiation efficiency when using 7-day passage and media change schedule (n=6). (H) […]
With the understanding that B8 supports hiPSC growth across a variety of sub-optimal conditions (FIG. 7D), we established the suitability of this formula to skip days of media change. […] With the knowledge of the influence of various media change-skipping timelines, we devised a 7-day schedule consisting of passaging cells every 3.5 days that would allow for the skipping of media changes on the weekends, a major caveat of current hiPSC culture protocols (FIGS. 8B and 8C). […]

As for “TGFβ3: 112 amino acid TGFβ3 (SEQ ID NO: 16) made in E. coli as thioredoxin fusion protein”, in the data set with hiPSC [1], the “concentration confirmed / usable / required in long-term assay” value was found to be 0.1 ng/mL. The “potency relative to TGFβ1” value in data set [2] is “more potent than TGFβ1”.

Turning to heparin, the “effect of component on stability of FGF2-G3” value in the data set on phospho-ERK was “improved the stability of FGF2-G3”. Moreover, the “additive effect in B8” value with hiPSC [3] is “do not have an additive effect”.
